Data on one compound can be found in patent US20040176474A1 (priority 2003, published 2004).

The nature of data set [1]: UN Test Series 3 overall conclusion. The format is physicochemical. The note with it: sensitivity for transportation. An excerpt: UN Test Series 3: Drop Impact
Conclusion of UN Tests Series 3 Results:

The nature of data set [2]: Adiabatic compression test. The format is physicochemical. On the procedure: Adiabatic Compression Test
This test determines the initiation sensitivity of the material to sudden gas compression, such as liquid inertia compressing entrained gas bubbles during transportation or hydrostatic pressure heads which form when pumping liquid or opening and closing valves. The test is performed with a plunger to rapidly compress gas from a drop height of at least 100 cm within a cylindrical chamber containing the sample. Energy is delivered to the plunger with a drop weight. A failed test is one in which any smoke, discoloration, char, spark or audible report result from the test. Neat propargyl bromide and the single solvent formulation pass the test at drop height of 150 cm in nitrogen and fail the test in air at drop heights of 100 cm and 150 cm.

Take `C#CCBr` [neat propargyl bromide, 3-bromopropyne]: the “UN Test Series 3 conclusion” value in data set [1] is on record as “too sensitive to mechanical impact to allow transportation”. Further, the “Adiabatic compression test result (pass/fail)” value is on record as “pass” in data set [2] (drop height of 150 cm in nitrogen); “fail” in data set [2] (in air at drop heights of 100 cm and 150 cm).
